Publication PMC3022755, “HP1 Recruits Activity-Dependent Neuroprotective Protein to H3K9me3 Marked Pericentromeric Heterochromatin for Silencing of Major Satellite Repeats” (PLoS ONE, 2011)
Where no end group is shown, it is not given here. [ ]: non-standard residue; d: D form. The star is where a group is joined. Biotin = O=C1N[C@H]2[C@H](CS[C@H]2CCCCC(=O)*)N1; Lys(Me3) = C[N+](C)(C)CCCC[C@H](N)C(=O)O; d = 2'-deoxy (DNA)

Assays:
H3K27me1 = H3K27me1 levels and distribution after ADNP knockdown; type: cell-based, mouse; conditions: NIH3T3, ADNP knockdown; western blot and immunofluorescence
H4K20me3 = H4K20me3 levels and distribution after ADNP knockdown; type: cell-based, mouse; conditions: NIH3T3, ADNP knockdown; western blot and immunofluorescence
H3K9me3 = H3K9me3 levels and distribution after ADNP knockdown; type: cell-based, mouse; conditions: NIH3T3, ADNP knockdown; western blot and immunofluorescence
[1] = system: major satellite repeat sequences; experiment: CpG methylation, Southern blot after TaiI digestion; type: cell-based, mouse; conditions: NIH3T3, ADNP knockdown
major satellite repeats = experiment: Major satellite repeat transcripts, real time PCR; type: cell-based, mouse; conditions: ADNP knockdown NIH3T3; relative to GAPDH; vs scrambled siRNA or mock; triplicate
HP1α, HP1β and HP1γ = experiment: HP1 distribution after ADNP knockdown; type: cell-based, mouse; conditions: NIH3T3, ADNP knockdown; immunofluorescence
ADNP = experiment: siRNA knockdown, western blot; type: cell-based, mouse; conditions: NIH3T3, vs scrambled siRNA and untransfected (mock)
HP1 = experiment: ADNP peptide pulldown of HeLa S3 nuclear extract, western blot; type: binding

Substance: ADNP siRNA: sense 5′ - [GAUUCUUAUGAGGCUAGGA] RNA [TT] DNA, antisense 5′ - [UCCUAGCCUCAUAAGAAUC] RNA [TT] DNA (RNA, 3' dTdT, backbone not given here) [sense 5′ - [GAUUCUUAUGAGGCUAGGA]; RNA [TT]; DNA, antisense 5′ - [UCCUAGCCUCAUAAGAAUC]; DNA]
- effects on levels and distribution of H3K27me1 (H3K27me1): no effects
- effects on levels and distribution of H4K20me3 (H4K20me3): no effects
- effects on levels and distribution of H3K9me3 (H3K9me3): no effects
- reduction of CpG methylation at major satellite repeats [1]: no reduction
- level of major satellite transcripts (major satellite repeats): elevated
- distribution of HP1α, HP1β and HP1γ (HP1α, HP1β and HP1γ): appeared normal
- ADNP protein levels (ADNP): significant reduction

Substance: Biotin-EDDSYEAR[Lys(Me3)]SFLTKYFNKQP [ADNPK767me3, methylated ADNP peptide used for pulldown]
- HP1 binding (HP1): does not bind
